Test results from patent publication US20200163954A1 (Exelixis, Inc., priority 2014, published 2020).
Where two headings read alike, the source gives them in different places.

Experiments:
[1] = PK parameters of cabozantinib and measured metabolites in human subjects; type: in vivo; conditions: for AUC(0-inf) / Cmax / Tmax / AUC(0-t) / half-life: human, plasma, oral, 140 mg/day; for half-life: read-out: t1/2, apparent terminal elimination half-life (converted)
[2] = target: T1, Flt-4 (Homo sapiens, UniProt P35916); experiment: Kinase activity (EMD Millipore Kinase Profiler), Flt-4; type: biochemical; conditions: class symbol; read-out: Flt-4 Std (IC50)
T1 construct: purchased EMD Millipore (Kinase Profiler service)

[3] = Metabolite profiling in human plasma, urine and feces (mass balance study, [14C] cabozantinib); type: in vivo; conditions: for Presence in pooled fecal sample, 0-72 hours post dose / Presence in pooled fecal sample, 144-192 hours post dose: human feces; for Peak on plasma radio-chromatograms: human plasma, one subject, single 175 mg oral dose of cabozantinib (L-malate salt) with [14C] cabozantinib
Method: The objective of this study was to profile and identify metabolites of cabozantinib in human plasma, urine, and feces.
The plasma, urine, and fecal samples were collected from the 8 subjects for the metabolite profiling.
All samples were shipped to QPS LLC (Newark, Del.) and stored at −70° C. HPLC/tandem MS coupled with a radio flow-through detector (RFD) was used for metabolite profiling and identification for samples with sufficient levels of radioactivity.
HPLC fraction collection followed by counting with TopCount NXT™ was used for radioquantitation of plasma samples with sufficient levels of radioactivity. […] HPLC Method 1 was used for the analysis of pooled urine and fecal samples and individual plasma samples from different time points. […] HPLC Method 3 was used for pooled plasma samples.
For the investigation of co-eluting metabolites, nonradiolabeled plasma samples of six subjects were pooled, processed, and analyzed for pre-dose, 1-7, 8-96, and 120-336 hours post-dose. […] [^14C]
Radiolabeled and non-radiolabeled plasma samples were extracted employing the same method, using 1.0-2 mL plasma samples, depending on the volume available and radioactivity level of the samples. The supernatants were evaporated to dryness under a stream of nitrogen in an ambient water bath, and the residues were reconstituted in 0.35-0.5 mL of MeOH:ACN:water (10:20:70, v/v/v). The reconstituted samples were centrifuged at 15,000 rpm for 10 minutes. Aliquots of the supernatants were injected onto the HPLC system for analysis.
The radioactivity in pooled urine and reconstituted solution was counted using LSC, and the reconstitution recovery calculated. […] Each pooled urine sample was lyophilized, the residue was reconstituted in water:ACN:FA (80:20:0.1, v/v/v), and the reconstituted sample was centrifuged at 15,000 rpm for 10 min before analysis.
The supernatants were dried under a nitrogen stream, and the residues were reconstituted in water:ACN:FA (80:20:0.1, v/v/v). The reconstituted samples were centrifuged at 15,000 rpm for 10 min before analysis.
The system for metabolite profiling and identification (HPLC/MS/RFD) consisted of a HTC PAL autosampler, a Surveyor HPLC pump, a LTQ linear ion trap mass spectrometer, and a β-RAM Model 3 RFD. The data obtained by mass spectrometry and RFD were processed by Xcalibur and Laura Lite 3 software, respectively. The HPLC eluent was split between the RFD and mass spectrometer with a ratio of 3 to 1. The following are the summary of the conditions for HPLC, mass spectrometer, and RFD.
For plasma samples, percent of total radioactivity in the sample for each peak at each time point was calculated and converted to ng/mL.

[4] = target: T2, c-Met (Homo sapiens, UniProt P08581); experiment: Kinase activity (EMD Millipore Kinase Profiler), c-Met; type: biochemical; conditions: class symbol; read-out: c-Met Std (IC50)
T2 construct: purchased EMD Millipore (Kinase Profiler service)

[5] = target: T3, Flt-3 (Homo sapiens, UniProt P36888); experiment: Kinase activity (EMD Millipore Kinase Profiler), Flt-3; type: biochemical; conditions: class symbol; read-out: Flt-3 Std (IC50)
T3 construct: purchased EMD Millipore (Kinase Profiler service)
T3 sequence (P36888 27-993): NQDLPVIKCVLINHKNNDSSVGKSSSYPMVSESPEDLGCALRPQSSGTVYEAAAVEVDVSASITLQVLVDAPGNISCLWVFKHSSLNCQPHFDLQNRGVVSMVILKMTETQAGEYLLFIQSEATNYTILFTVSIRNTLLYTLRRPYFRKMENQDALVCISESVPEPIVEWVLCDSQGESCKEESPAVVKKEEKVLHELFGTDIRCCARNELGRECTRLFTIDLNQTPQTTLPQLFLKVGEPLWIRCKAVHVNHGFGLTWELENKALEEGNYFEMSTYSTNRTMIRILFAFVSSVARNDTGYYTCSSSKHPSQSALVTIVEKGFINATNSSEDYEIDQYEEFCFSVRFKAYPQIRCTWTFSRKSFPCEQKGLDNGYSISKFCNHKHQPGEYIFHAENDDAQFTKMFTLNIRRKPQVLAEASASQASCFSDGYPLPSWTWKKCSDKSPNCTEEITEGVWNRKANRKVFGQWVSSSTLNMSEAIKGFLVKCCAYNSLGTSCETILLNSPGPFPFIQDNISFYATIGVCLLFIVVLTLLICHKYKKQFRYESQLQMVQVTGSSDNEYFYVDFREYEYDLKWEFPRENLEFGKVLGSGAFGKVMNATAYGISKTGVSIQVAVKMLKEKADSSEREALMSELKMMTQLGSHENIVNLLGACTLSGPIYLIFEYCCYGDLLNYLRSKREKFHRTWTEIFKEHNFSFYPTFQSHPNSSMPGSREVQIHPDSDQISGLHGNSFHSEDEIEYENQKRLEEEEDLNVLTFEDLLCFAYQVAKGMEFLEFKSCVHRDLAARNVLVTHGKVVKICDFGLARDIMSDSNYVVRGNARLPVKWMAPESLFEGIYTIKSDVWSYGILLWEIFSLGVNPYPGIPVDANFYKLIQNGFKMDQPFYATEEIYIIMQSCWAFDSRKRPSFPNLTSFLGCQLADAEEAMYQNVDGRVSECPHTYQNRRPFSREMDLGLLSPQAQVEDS

[6] = target: T4, KDR (Homo sapiens, UniProt P35968); experiment: Kinase activity (EMD Millipore Kinase Profiler), KDR; type: biochemical; conditions: class symbol; read-out: KDR Std (IC50)
T4 construct: purchased EMD Millipore (Kinase Profiler service)

[7] = eight human subjects, cabozantinib 140 mg/day, time zero to 24 hours post dose, read-out: AUC0-24
[8] = eight human subjects, cabozantinib 140 mg/day, time zero to 72 hours post dose, read-out: AUC0-72
[9] = eight human subjects, cabozantinib 140 mg/day, time zero to last measurable concentration, read-out: AUC0-t
[10] = HPLC Method 1, single 175 mg oral dose
[11] = human urine, HPLC Method 1, single 175 mg oral dose

T4 sequence (P35968 20-1356): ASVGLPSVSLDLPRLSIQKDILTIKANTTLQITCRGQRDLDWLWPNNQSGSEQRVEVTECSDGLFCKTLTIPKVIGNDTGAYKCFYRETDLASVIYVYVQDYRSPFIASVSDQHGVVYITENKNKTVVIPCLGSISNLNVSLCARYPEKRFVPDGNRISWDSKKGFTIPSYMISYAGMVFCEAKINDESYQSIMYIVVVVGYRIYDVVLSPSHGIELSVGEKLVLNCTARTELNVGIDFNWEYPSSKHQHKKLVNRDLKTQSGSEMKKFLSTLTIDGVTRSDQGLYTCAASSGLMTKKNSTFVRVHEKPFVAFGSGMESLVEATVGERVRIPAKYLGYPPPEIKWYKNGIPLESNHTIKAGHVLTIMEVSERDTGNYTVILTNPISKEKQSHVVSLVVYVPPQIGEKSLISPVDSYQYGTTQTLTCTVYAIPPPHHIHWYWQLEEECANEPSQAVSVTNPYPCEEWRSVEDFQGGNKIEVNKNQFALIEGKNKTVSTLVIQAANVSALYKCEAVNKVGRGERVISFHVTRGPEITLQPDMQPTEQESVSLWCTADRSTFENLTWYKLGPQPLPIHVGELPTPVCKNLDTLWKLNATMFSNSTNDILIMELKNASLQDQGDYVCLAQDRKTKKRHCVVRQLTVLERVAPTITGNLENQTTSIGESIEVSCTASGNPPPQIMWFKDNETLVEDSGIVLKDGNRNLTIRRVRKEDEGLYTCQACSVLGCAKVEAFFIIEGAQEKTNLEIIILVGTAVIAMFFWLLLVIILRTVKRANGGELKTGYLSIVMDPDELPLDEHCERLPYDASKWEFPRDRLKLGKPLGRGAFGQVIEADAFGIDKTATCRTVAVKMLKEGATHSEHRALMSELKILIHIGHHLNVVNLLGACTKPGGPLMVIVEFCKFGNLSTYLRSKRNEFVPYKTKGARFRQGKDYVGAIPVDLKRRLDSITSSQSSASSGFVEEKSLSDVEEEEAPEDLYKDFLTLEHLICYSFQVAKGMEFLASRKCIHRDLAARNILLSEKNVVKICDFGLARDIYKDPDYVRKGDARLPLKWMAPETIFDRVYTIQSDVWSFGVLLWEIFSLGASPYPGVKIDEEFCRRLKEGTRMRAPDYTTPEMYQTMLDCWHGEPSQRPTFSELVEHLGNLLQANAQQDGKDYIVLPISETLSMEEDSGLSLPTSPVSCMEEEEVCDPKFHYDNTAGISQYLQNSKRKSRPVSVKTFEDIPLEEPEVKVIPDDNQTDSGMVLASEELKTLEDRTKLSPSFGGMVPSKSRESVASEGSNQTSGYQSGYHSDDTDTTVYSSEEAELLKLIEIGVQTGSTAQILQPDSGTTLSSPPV
T2 sequence (P08581 25-1390): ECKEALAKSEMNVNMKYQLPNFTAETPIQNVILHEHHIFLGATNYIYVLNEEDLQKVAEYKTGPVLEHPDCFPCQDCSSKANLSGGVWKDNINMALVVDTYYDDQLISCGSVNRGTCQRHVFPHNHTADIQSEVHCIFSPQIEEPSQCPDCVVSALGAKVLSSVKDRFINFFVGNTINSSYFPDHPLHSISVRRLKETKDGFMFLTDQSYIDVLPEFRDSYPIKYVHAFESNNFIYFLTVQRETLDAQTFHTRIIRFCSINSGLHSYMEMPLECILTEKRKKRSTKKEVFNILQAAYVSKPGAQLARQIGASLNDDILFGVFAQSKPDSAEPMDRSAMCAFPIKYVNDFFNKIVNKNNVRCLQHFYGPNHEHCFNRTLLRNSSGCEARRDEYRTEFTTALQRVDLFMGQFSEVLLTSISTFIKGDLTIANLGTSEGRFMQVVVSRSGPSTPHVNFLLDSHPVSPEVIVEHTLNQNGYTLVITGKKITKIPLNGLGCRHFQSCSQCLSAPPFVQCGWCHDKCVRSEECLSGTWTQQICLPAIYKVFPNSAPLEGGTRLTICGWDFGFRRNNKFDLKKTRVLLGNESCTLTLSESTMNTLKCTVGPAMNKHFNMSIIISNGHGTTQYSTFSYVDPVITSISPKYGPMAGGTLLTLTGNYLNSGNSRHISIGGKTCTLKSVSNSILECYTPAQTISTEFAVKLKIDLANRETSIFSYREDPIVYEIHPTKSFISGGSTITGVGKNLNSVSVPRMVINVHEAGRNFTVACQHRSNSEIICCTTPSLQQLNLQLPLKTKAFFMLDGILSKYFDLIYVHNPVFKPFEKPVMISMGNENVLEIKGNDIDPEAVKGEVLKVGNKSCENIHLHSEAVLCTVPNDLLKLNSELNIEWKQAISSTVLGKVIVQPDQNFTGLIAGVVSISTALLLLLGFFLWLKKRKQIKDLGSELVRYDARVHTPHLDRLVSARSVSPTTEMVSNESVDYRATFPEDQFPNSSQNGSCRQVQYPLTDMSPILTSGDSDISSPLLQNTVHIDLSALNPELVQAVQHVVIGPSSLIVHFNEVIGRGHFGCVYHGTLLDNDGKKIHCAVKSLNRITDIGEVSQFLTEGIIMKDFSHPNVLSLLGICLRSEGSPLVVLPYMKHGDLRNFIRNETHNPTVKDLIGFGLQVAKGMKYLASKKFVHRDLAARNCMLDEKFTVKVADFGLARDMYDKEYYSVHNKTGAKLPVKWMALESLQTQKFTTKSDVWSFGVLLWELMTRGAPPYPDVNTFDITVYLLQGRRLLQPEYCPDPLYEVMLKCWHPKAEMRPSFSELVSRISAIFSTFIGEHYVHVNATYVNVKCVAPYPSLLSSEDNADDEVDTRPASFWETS
T1 sequence (P35916 25-1363): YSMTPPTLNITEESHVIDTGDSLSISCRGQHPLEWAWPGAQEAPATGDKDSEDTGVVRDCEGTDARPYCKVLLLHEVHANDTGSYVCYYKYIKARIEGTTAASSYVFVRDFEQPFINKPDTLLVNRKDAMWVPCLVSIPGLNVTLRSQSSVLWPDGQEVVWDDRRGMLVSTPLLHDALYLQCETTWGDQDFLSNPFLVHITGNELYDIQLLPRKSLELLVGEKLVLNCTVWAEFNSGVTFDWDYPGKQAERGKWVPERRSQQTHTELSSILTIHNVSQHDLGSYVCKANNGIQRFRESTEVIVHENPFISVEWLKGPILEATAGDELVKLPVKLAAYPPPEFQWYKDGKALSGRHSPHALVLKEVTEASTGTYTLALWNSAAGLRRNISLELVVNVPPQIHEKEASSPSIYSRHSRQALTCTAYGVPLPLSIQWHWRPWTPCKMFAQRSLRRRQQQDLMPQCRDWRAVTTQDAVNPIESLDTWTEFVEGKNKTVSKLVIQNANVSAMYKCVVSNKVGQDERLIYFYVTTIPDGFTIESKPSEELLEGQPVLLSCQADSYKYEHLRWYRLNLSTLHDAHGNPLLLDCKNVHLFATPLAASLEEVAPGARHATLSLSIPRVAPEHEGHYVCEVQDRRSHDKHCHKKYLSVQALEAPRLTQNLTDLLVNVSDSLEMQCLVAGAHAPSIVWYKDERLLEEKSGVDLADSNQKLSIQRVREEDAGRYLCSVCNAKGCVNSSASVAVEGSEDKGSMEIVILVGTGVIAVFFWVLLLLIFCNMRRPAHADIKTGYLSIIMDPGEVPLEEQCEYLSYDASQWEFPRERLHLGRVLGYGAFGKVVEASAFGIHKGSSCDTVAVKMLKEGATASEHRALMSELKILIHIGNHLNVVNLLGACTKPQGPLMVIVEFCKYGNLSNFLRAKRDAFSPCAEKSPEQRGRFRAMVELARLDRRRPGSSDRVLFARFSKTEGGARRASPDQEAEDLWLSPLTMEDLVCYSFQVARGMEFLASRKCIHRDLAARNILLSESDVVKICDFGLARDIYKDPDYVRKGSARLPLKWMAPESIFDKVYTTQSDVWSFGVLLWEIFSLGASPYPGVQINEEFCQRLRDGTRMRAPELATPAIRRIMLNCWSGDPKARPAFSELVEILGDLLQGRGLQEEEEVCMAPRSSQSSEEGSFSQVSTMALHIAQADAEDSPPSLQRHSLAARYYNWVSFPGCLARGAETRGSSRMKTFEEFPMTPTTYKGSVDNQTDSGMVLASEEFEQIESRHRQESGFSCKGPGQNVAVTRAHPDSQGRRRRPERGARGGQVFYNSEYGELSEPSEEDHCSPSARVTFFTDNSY

Structure (SMILES)	AUC(0-inf) [1]	Cmax [1]	Tmax [1]	AUC(0-t) [1, 7]	AUC(0-t) [1, 8]	AUC(0-t) [1, 9]	half-life [1]	Presence in pooled fecal sample, 0-72 hours post dose [3, 10]	Peak on plasma radio-chromatograms [3]	Presence in pooled urine sample, 0-72 hours post dose [3, 11]	further results
COc1cc2nccc(Oc3ccc(NC(=O)C4(C(=O)Nc5ccc(F)cc5OS(=O)(=O)O)CC4)cc3)c2cc1OC [drawing 47]	29500 ng·h/mL	236 ng/mL	24 h	3970 ng·h/mL	12600 ng·h/mL	28900 ng·h/mL	86 h	–	–	–	–
COc1cc2nccc(Oc3ccc(NC(=O)C4(C(=O)Nc5ccc(F)cc5)CC4)cc3)c2cc1OC [Cabozantinib, N-(4-{[6,7-bis(methyloxy)quinolin-4-yl]oxy}phenyl)-N′-(4-fluorophenyl)cyclopropane-1,1-dicarboxamide, reference compound]	68000 ± 6910 ng·h/mL	1250 ng/mL	1.49 h	14300 ± 2600 ng·h/mL	35000 ± 6770 ng·h/mL	67200 ± 6880 ng·h/mL	–	observed	major peaks	–	kel, apparent terminal elimination rate constant ([1]; eight human subjects, cabozantinib 140 mg/day): 0.00712 ± 0.001 h⁻¹; IC50 [2]: < 50 nM; Presence in urine samples ([3]; human urine, all samples, single 175 mg oral dose): not observed
COc1cc2nccc(Oc3ccc(NC(=O)C4(C(=O)O)CC4)cc3)c2cc1OC [Compound 7, 1-[4-(6,7-Dimethoxy-quinolin-4-yloxy)-phenylcarbamoyl]-cyclopropane carboxylic Acid]	–	–	–	–	–	–	–	observed	one of the minor peaks	observed	Presence in pooled fecal sample, 144-192 hours post dose [3, 10]: observed; Presence in pooled urine sample, 144-192 hours post dose [3, 11]: observed
COc1cc2nccc(Oc3ccc(NC(=O)C4(C(=O)Nc5ccc(F)c(O)c5)CC4)cc3)c2cc1OC [Compound 13]	–	–	–	–	–	–	–	–	–	–	IC50 [4]: < 50 nM; IC50 [5]: < 50 nM; IC50 [6]: < 50 nM
COc1cc2nccc(Oc3ccc(NC(=O)C4(C(=O)Nc5ccc(F)cc5O)CC4)cc3)c2cc1OC [Compound 16]	–	–	–	–	–	–	–	observed	–	–	Presence in pooled fecal sample, 144-192 hours post dose [3, 10]: observed; IC50 [4]: < 50 nM; IC50 [5]: < 50 nM; IC50 [6]: < 50 nM
COc1cc2nccc(Oc3ccc(N)cc3)c2cc1O [Compound 1]	–	–	–	–	–	–	–	–	–	observed	Presence in pooled urine sample, 144-192 hours post dose [3, 11]: observed; Presence in pooled urine sample, 288-336 hours post dose [3, 11]: detected
COc1cc2nccc(Oc3ccc(NC(=O)C4(C(=O)O)CC4)cc3)c2cc1OC [drawing 45]	6770 ng·h/mL	52.9 ng/mL	19 h	1080 ng·h/mL	3120 ng·h/mL	6540 ng·h/mL	91.8 h	–	–	–	–
COc1cc2c(Oc3ccc(NC(=O)C4(C(=O)Nc5ccc(F)cc5)CC4)cc3)cc[n+]([O-])c2cc1OC [drawing 46]	10300 ng·h/mL	118 ng/mL	13.5 h	2030 ng·h/mL	5610 ng·h/mL	10100 ng·h/mL	89.2 h	–	–	–	–
COc1cc2c(Oc3ccc(NC(=O)C4(C(=O)Nc5ccc(F)cc5)CC4)cc3)cc[n+]([O-])c2cc1OC [Compound 19, Cabozantinib N-Oxide]	–	–	–	–	–	–	–	–	major peaks	observed	–
